Experimental data reported in US9255257B2, “PmST1 mutants for chemoenzymatic synthesis of sialyl lewis X compounds” (THE REGENTS OF THE UNIVERSITY OF CALIFORNIA, priority 2011, dated 2016).

What was measured:
[1] = target: Pasteurella multocida PmST1 mutant H311A (Pasteurella multocida, UniProt Q15KI8, H311A); experiment: CMP-Neu5Ac (donor) hydrolysis activity, capillary electrophoresis; conditions: apparent, Tris-HCl pH 8.5, 37° C., 20 min
Method: The reactions were stopped by adding 10 μL of pre-chilled ethanol. The mixtures were incubated on ice for 30 min and centrifuged at 13,000 rpm for 5 min. The supernatants were diluted with borate buffer (25 mM, pH 9.5) and aliquotes of 5 μL each were injected to a Beckman Coulter P/ACE™ MDQ Capillary Electrophoresis system equipped with a capillary (60 cm×75 μm i.d.) and monitored at 254 nm. The apparent kinetic parameters were obtained by fitting the experimental data (the average values of duplicate assay results) into the Michaelis-Menten equation using Grafit 5.0.

[2] = target: Pasteurella multocida PmST1 mutant M144H of SEQ ID NO: 13 (M120H of Δ24PmST1, SEQ ID NO: 5) (Pasteurella multocida, UniProt Q15KI8, M144H); experiment: α2-3-sialyltransferase activity, Le^xβMU as acceptor; format: biochemical; conditions: apparent, donor, Le^xβMU 1 mM, CAPSO pH 9.5, 37° C.
Method: Site-directed mutagenesis, expression and purification of PmST1 mutants. Site-directed mutagenesis was performed using the QuikChange multi-site-directed mutagenesis kit from Stratagene according to the manufacturer's protocol. The primers used were 5′-[…]-3′ (SEQ ID NO:35) for M144D; 5′-[…]a[…] -3′ (SEQ ID NO:36) for M144H; 5′-[…]-3′ (SEQ ID NO:37) for A35D; and 5′-[…]-3′ (SEQ ID NO:38) for A35H. The expression and purification of the mutants were performed as previously described for the WT PmST1 .
Kinetics of the α2-3-sialyltransferase activity of PmST1 mutants by HPLC analysis. With LacβMU as the acceptor substrate, the reactions were performed in duplicate at 37° C. for 10 min (M144D) or 4 min (M144H) in a reaction mixture (10 μL) containing Tris-HCl (100 mM, pH 8.5), an enzyme (5 μg mL^−1), and different concentrations (0.2, 0.5, 1.0, 2.0, and 5.0 mM) of LacβMU with a fixed concentration (1 mM) of CMP-Neu5Ac or different concentrations (0.2, 0.5, 1.0, 2.0, 5.0, and 10.0 mM) of CMP-Neu5Ac with a fixed concentration (1 mM) of LacβMU. With Le^xβMU as the acceptor substrate, the reactions were carried out in duplicate at 37° C. for 9 min (M144D) or 10 min (M144H) in a reaction mixture (10 μL) containing CAPSO (100 mM, pH 9.5), an enzyme (M144D, 39 μg mL^−1 or M144H, 5 μg mL^−), and various concentrations of Le^xβMU (1.0, 5.0, 10.0, 15.0, 25.0, and 35.0 mM) with a fixed concentration (1 mM) of CMP-Neu5Ac or various concentrations (0.2, 0.5, 1.0, 2.0, 5.0, 10.0, 20.0, and 40.0 mM) of CMP-Neu5Ac with a fixed concentration (1 mM) of Le^xβMU. Reactions were stopped by adding 10 μL of pre-chilled ethanol. The mixtures were incubated on ice for 30 min and centrifuged at 13,000 rpm for 5 min. The supernatants were diluted with 25% acetonitrile and kept on ice until aliquots of 8 μL were injected and analyzed by the Shimadzu LC-6AD system equipped with a membrane on-line degasser, a temperature control unit, and a fluorescence detector (Shimadzu RF-10AXL). A reverse-phase Premier C18 column (250×4.6 mm i.d., 5 μm particle size, Shimadzu) protected with a C18 guard column cartridge was used. The mobile phase was 25% acetonitrile. The fluorophore (MU)-labeled compounds were detected by excitation at 325 nm and emission at 372 nm. The apparent kinetic parameters were obtained by fitting the experimental data (the average values of duplicate assay results) into the Michaelis-Menten equation using Grafit 5.0.

[3] = target: Pasteurella multocida PmST1 mutant R313Y of SEQ ID NO: 13 (R289Y of Δ24PmST1, SEQ ID NO: 9) (Pasteurella multocida, UniProt Q15KI8, R313Y); experiment: α2-3-sialyltransferase activity, LacβMU as acceptor; format: biochemical; conditions: apparent, donor, LacβMU 1 mM, Tris-HCl pH 8.5, 37° C.
Method: (§1) To obtain the apparent kinetic parameters of LacβMU as the acceptor for the α2-3-sialyltransferase activity, the kinetic assays were performed in duplicate in reaction mixtures of 10 μL containing Tris-HCl buffer (100 mM, pH 8.5), a fixed concentration of CMP-Neu5Ac (1 mM), different concentrations of LacβMU (0.2, 0.5, 1.0, 2.0, 5.0, and 9.0 mM) and the mutant proteins (2 μg mL^−1 of E271F, 2 μg mL^−1 of R313Y, and 1.6 μg mL^−1 of E271F/R313Y). All reactions were allowed to proceed at 37° C. for 5 min (E271F), 7 min (R313Y), and 10 min (E271F/R313Y). The apparent kinetic parameters were obtained by fitting the experimental data (the average values of duplicate assay results) into the Michaelis-Menten equation using Grafit 5.0.
(§2) To obtain the apparent kinetic parameters of CMP-Neu5Ac as the donor for the α2-3-sialyltransferase activity, the kinetic assays were performed in duplicate in reaction mixtures of 10 μL containing Tris-HCl buffer (100 mM, pH 8.5), a fixed concentration of LacβMU (1 mM), different concentrations of CMP-Neu5Ac (0.1, 0.2, 0.5, 1.0, 2.0, 5.0, 10.0 and 20.0 mM) and the mutant proteins (2 μg mL^−1 of E271F, 2 μg mL^−1 of R313Y, and 1.6 μg mL^−1 of E271F/R313Y). All reactions were allowed to proceed at 37° C. for 2 min (E271F), 7 min (R313Y), and 5 min (E271F/R313Y). The apparent kinetic parameters were obtained by fitting the experimental data (the average values of duplicate assay results) into the Michaelis-Menten equation using Grafit 5.0.
(§3) All the sialidase and α2-3-sialyltransferase assays were performed in an HPLC system. Reactions were stopped by adding 10 μL of ethanol. After necessary dilutions were performed to adjust the concentrations of the fluorescent-labeled compounds, the samples were then kept on ice until aliquots of 8 μL were injected and analyzed by a Shimadzu LC-6AD system equipped with a membrane on-line degasser, a temperature control unit, and a fluorescence detector (Shimadzu RF-10AXL). A reverse-phase Premier C18 column (250×4.6 mm i.d., 5 μm particle size, Shimadzu) protected with a C18 guard column cartridge was used. The mobile phase was 25% acetonitrile. The fluorescent compounds LacβMU and Neu5Acα2-3LacβMU were detected by excitation at 325 nm and emission at 372 nm.

[4] = target: Pasteurella multocida PmST1 double mutant E271F/R313Y of SEQ ID NO: 13 (E247F/R289Y of Δ24PmST1, SEQ ID NO: 11) (Pasteurella multocida, UniProt Q15KI8, E271F/R313Y); experiment: as above; format: biochemical; conditions: apparent, donor, LacβMU 1 mM, Tris-HCl pH 8.5, 37° C.
Method: as §1, §2, §3

[5] = target: Pasteurella multocida PmST1 mutant E271F of SEQ ID NO: 13 (E247F of Δ24PmST1, SEQ ID NO: 7) (Pasteurella multocida, UniProt Q15KI8, E271F); experiment: as above; format: biochemical; conditions: apparent, donor, LacβMU 1 mM, Tris-HCl pH 8.5, 37° C.
Method: as §1, §2, §3

`CC(=O)N[C@H]1[C@H]([C@H](O)[C@H](O)CO)O[C@](OP(=O)(O)OC[C@H]2O[C@@H](n3ccc(N)nc3=O)[C@H](O)[C@@H]2O)(C(=O)O)C[C@@H]1O` [CMP-Neu5Ac] was tested, and the kcat [1] was 2.1 ± 0.1 s⁻¹, the “kcat (CMP-Neu5Ac)” value [2] was 0.93 ± 0.02 s⁻¹ and the “kcat (CMP-Neu5Ac)” value [3] was 19 ± 1 s⁻¹. For the same molecule, the “kcat (CMP-Neu5Ac)” value [4] was 23 ± 1 s⁻¹ and the “kcat (CMP-Neu5Ac)” value [5] was 26 ± 1 s⁻¹.
